According to patent US11826373B2, “Methods for treatment of diseases” (Galera Labs, LLC, priority 2011, dated 2023):
Like-named read-outs stand apart in the source and are kept apart here.

What was measured:
TNF-α = experiment: Plasma TNF-α in the collagen induced arthritis model; format: in vivo, Male Lewis rats
Description: Male Lewis rats (160-180 g) were used for this study. Collagen induced arthritis (CIA) was induced as follows: Bovine type II collagen (CII; Sigma) was dissolved in 0.1 M acetic acid at 2 mg/mL by stirring overnight at 4 C. Rats were immunized with an emulsion of 2 mg/mL CII in incomplete Freund's adjuvant (IFA; Sigma). The emulsion was prepared by homogenizing one part CII into one part IFA at 4 C. On day 1, rats were injected intradermally at the base of the tail with 100 μL of the emulsion. On day 21, a second injection of CII in IFA was administered at the base of the tail. GC4403 and GC4419 were prepared fresh, dissolved in 26 mM sodium bicarbonate buffered saline (Vehicle). All drugs were given by intraperitoneal injection at 1 mL/kg. Animals were randomly divided into groups (n=10 per group). GC4403 and GC4419 were administered once daily at 2, 5 and 10 mg/kg from days 25 through 35.
TNF-α levels were measured from plasma on day 35. The assay was conducted using a colorimetric ELISA kit (Calbiochem-Novabiochem) having a detection limit of 5 pg/mL. Values were expressed as mean±standard error of the mean of 10 observations. Data sets were examined by one-way ANOVA followed by a Bonferroni post-hoc test for multiple comparisons. A p-value of less than 0.05 was considered significant.

Solubility (Table 1) = format: physicochemical
beagle dogs [1] = experiment: GC4403 28-day IV toxicity in dog; format: in vivo; details: 28 days
Description: GC4403 was evaluated in a Good Laboratory Practice (GLP)-regulated study in beagle dogs. GC4403 was administered intravenously (IV) via slow bolus dose, once daily, to beagle dogs for 28 consecutive days. GC4403 was administered IV into the cephalic vein (0.5 mL/kg) to 3 groups of dogs (4 animals/sex/group) at dosages of 1.0, 3.0 and 6.0 mg/kg with a fourth group receiving vehicle (26 mM sodium bicarbonate in normal saline). […] There were no test article-related differences in group mean hematology, coagulation, or clinical chemistry parameters or urinalysis parameters after 28 days of treatment in any dosing group. At necropsy on day 29, there were neither test-article related gross macroscopic findings nor test-article-related differences in organ weight. No test-article-related histopathological lesions were present. There were no test-article-related electrocardiology (ECG) effects when evaluated on day 27.

HEK-293 cells = experiment: Anti-proliferative activity in vitro; format: cell-based; details: 72 hour incubation, LDH assay
Description: Materials and Methods: HEK-293 (CRL-1573) cells were obtained from ATCC and cultured according to ATCC instructions. Complete growth medium consisted of RPMI 1640 supplemented to 10% with fetal bovine serum (FBS). All cell incubations were at 37° C. in 95% air: 5% CO2. Two days before the start of a proliferation experiment, 10^3 HEK-293 cells in exponential growth phase were plated into each well of a 96-well plate. To synchronize cell division, the cells were maintained in complete growth medium for 24 hours at which time the cell monolayers were rinsed once with growth medium without FBS and then incubated overnight in media without FBS. The next morning GC4419 or GC4403 in complete growth medium or complete growth medium alone was added. The plates were incubated for 72 hour, after which time cell numbers were determined using an LDH assay kit. “Cell number” on FIG. 3 represents absorbance at 490 nm.

[2] = Kinetic stability (dissociation of Mn(II) from ligand); format: physicochemical; details: second-order rate constant for dissociation of Mn(II) from the ligand, in water
[3] = Catalytic rate constant for the dismutation of superoxide; format: biochemical; details: pH = 7.4
beagle dogs [4] = experiment: GC4403 7-day IV toxicity in dog; format: in vivo; details: 7 days
Description: GC4403 in 26 mM sodium bicarbonate/0.9% sodium chloride was administered to beagle dogs (4/sex/group) IV (slow bolus injection over at least 1 minute) at dosages of 0, 1, 3 or 6 mg/kg/day for 7 days. There was no mortality during the study. […] At 6 mg/kg/day, animals also had tremors, abnormal stance and gait, inability to stand and prostration. Generally, clinical signs had resolved by two hours after dose administration. As the study progressed, some clinical signs (tremors, inability to stand, prostration and abnormal stance and gait) lessened slightly. […] The lower white cell counts correlated with lower absolute neutrophil and eosinophil counts at ≥3 mg/kg/day, which were, however, within the normal historical values for these parameters. At necropsy, there were no changes in organ weights compared to control animals nor were there macroscopic or microscopic changes in any organs with the exception of fibrosis in the heart of one male at 3 mg/kg/day and 1 male at 6 mg/kg/day.

beagle dogs [5] = experiment: 14-day repeat dose toxicity of GC4419 in dog; format: in vivo; details: beagle dogs, 2.5, 5.0 and 7.5 mg/kg IV over 15 minutes, 14 days
Description: (§1) GC4419 was evaluated in a GLP study in beagle dogs. GC4419 was administered intravenously (IV) over 15 minutes, once daily, to beagle dogs for 14 consecutive days. GC4419 was administered IV into the cephalic vein (4 mL/kg) to 3 groups of dogs (4 animals/sex/group) at dosages of 2.5, 5.0 and 7.5 mg/kg with a fourth group receiving vehicle (26 mM sodium bicarbonate in normal saline). […] All animals recovered from these effects. There were no test-article-related differences in group mean hematology, coagulation, or clinical chemistry parameters or urinalysis parameters after 14 days of treatment in any dosing group. At necropsy on day 15, there were neither test-article related gross macroscopic findings nor test-article-related differences in organ weight. No test-article-related histopathological lesions were present.

[6] = 14-day repeat dose toxicity of GC4419 in dog; format: in vivo, beagle dogs; details: both sexes, dog, in vivo, beagle dogs, IV over 15 minutes once daily
Description: as §1

Rats = experiment: Rat GC4419 7-day IV study; format: in vivo
Description: A GLP toxicity study with GC4419 in bicarbonate buffer was performed. Rats (5/sex/group) were administered GC4419 as a 15 minute IV injection (4 mL/kg) at 0, 5, 10 or 15 mg/kg for 7 consecutive days. The control group received bicarbonate buffer. Evaluations for compound-related effects were based on clinical observations, body weight and food consumption. There were no deaths during the study and there were no signs of significant compound effects at any dosage.

[7] = 2 mg/kg ip once daily days 25 through 35, measured day 35
[8] = 5 mg/kg ip once daily days 25 through 35, measured day 35
[9] = 10 mg/kg ip once daily days 25 through 35, measured day 35
[10] = 26 mM bicarbonate buffered saline, aqueous buffer, at 25° C., pH 8.3, read-out: Solubility in 26 mM bicarbonate buffered saline

| Structure (SMILES) | plasma TNF-α production (TNF-α; [7]) | plasma TNF-α production (TNF-α; [8]) | plasma TNF-α production (TNF-α; [9]) | solubility (Solubility (Table 1); [10]) [mg/mL] | solubility (Solubility (Table 1); distilled water, water) [mg/mL] | mortality (beagle dogs [1]; beagle dogs, 1.0, 3.0 and 6.0 mg/kg IV) | no observed toxic effect level (NOTEL) (beagle dogs [1]; both, beagle, dog, in vivo, iv) [mg/kg/day] | proliferation of HEK-293 cells (HEK-293 cells) | Kinetic Stability (kdiss) [2] | Catalytic rate constant for the dismutation for superoxide (kcat) [3] | mortality (beagle dogs [4]; dog, 1, 3 or 6 mg/kg/day IV) | no observed toxic event level (NOTEL) (beagle dogs [4]; dog, IV slow bolus injection) [mg/kg/day] | dosage at which clinical signs immediately after dose administration were observed (beagle dogs [4]; dog, IV slow bolus, scratching, facial swelling, raised red areas, partial closing of the eyes) [mg/kg/day] | mortality (beagle dogs [5]) | NOAEL at 14 days [6] [mg/kg/day] | decrease in body weight (Rats; males given 15 mg/kg/day, by Day 8) | mortality (Rats; rats, 5, 10 or 15 mg/kg, 7 days) | NOTEL (Rats; rats, males and females, 15 minute IV injection, 7 consecutive days) [mg/kg] |
| --- | --- | --- | --- | --- | --- | --- | --- | --- | --- | --- | --- | --- | --- | --- | --- | --- | --- | --- |
| [Cl][Mn-5]1234([Cl])[n+]5c6cccc5C[NH+]1[C@@H]1CCCC[C@H]1[NH+]2CC[NH+]3[C@@H]1CCCC[C@H]1[NH+]4C6 (some centres unmarked) [GC4403] | did not significantly reduce | significantly reduced | significantly reduced | 20 | 30 | No animals died | 3.0 | equivalent dose-dependent decrease | kdiss = 0.135 M^−1 s^−1 | kcat = 1.2 × 10^+7 M^−1 sec^−1 | no mortality | 3 | ≥ 3 | – | – | – | – | – |
| [Cl][Mn-5]1234([Cl])[n+]5c6cccc5C[NH+]1[C@H]1CCCC[C@@H]1[NH+]2CC[NH+]3[C@H]1CCCC[C@@H]1[NH+]4C6 (some centres unmarked) [GC4419] | did not significantly reduce | significantly reduced | significantly reduced | 20 | 30 | – | – | equivalent dose-dependent decrease | kdiss = 0.135 M^−1 s^−1 | kcat = 1.2 × 10^+7 M^−1 sec^−1 | – | – | – | No animals died | 5 | approximately 10% | no deaths | 15 |
